What was measured:
Adenosine kinase [1] = target: T1, Adenosine kinase (Homo sapiens, UniProt P55263); experiment: Inhibitory concentration against adenosine kinase was determined
Adenosine kinase [2] = target: T1, Adenosine kinase; experiment: Inhibitory concentration against adenosine kinase was determined in cell assay
Rattus norvegicus = species on record: Rattus norvegicus; experiment: Effective dose to reduce pain in carregenin induced thermal hyperalgesia assay in rat was determined; format: functional
[3] = Percent inhibition of the locomotor side effects in animals at 30 umol/kg po was determined; format: functional
[4] = Percent inhibition of the locomotor side effects in animals at 100 umol/kg po was determined; format: functional
[5] = Effective dose to reduce locomotor side effects in animals was determined; format: functional

T1 sequence (P55263 whole entry): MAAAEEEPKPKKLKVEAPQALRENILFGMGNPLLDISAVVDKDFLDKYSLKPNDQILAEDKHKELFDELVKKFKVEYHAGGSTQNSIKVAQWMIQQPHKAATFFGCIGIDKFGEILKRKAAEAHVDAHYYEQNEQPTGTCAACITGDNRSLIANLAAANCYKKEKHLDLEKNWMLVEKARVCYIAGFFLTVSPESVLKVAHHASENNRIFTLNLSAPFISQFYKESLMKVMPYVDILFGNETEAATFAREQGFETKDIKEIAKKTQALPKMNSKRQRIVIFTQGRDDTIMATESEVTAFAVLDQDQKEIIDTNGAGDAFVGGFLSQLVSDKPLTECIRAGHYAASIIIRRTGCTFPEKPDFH

Row | Structure (SMILES) | IC50 (Adenosine kinase [1]) | IC50 (Adenosine kinase [2]) | ED50 (Rattus norvegicus) | inhibition in vivo at 30 µmol/kg [3] | inhibition in vivo at 100 µmol/kg [4] | ED50 [5]
1 | Nc1ncnc2nc(-c3ccc(N4CCC[C@H]4CO)nn3)cc(-c3cccc(Br)c3)c12 | 16.2 nM | 154 nM | 10 µmol/kg | 98% | 75% | –
2 | COCCOC1CCN(c2ccc(-c3cc(-c4cccc(Br)c4)c4c(N)ncnc4n3)nn2)CC1 | 15.1 nM | 81.9 nM | 3 µmol/kg | – | – | 10 µmol/kg
3 | CON=C1CCN(c2ccc(-c3cc(-c4cccc(Br)c4)c4c(N)ncnc4n3)nn2)CC1 | 18.8 nM | 74.4 nM | 13 µmol/kg | – | – | 6 µmol/kg
4 | Nc1ncnc2nc(-c3ccc(N4CCC(COC5CCOCC5)CC4)nn3)cc(-c3cccc(Br)c3)c12 | 2.8 nM | 17.3 nM | 5 µmol/kg | – | – | 5 µmol/kg
5 | C/C(=N/OC1CCOCC1)C1(O)CCN(c2ccc(-c3cc(-c4cccc(Br)c4)c4c(N)ncnc4n3)cn2)CC1 | 31.7 nM | 43.7 nM | 5 µmol/kg | – | – | 30 µmol/kg
6 | Nc1ncnc2nc(-c3ccc(N4CCC(=NOC5CCOCC5)CC4)nn3)cc(-c3cccc(Br)c3)c12 | 7.1 nM | 52 nM | 2 µmol/kg | – | – | 7 µmol/kg
7 | CCO[C@H]1CN(c2ccc(-c3cc(-c4cccc(Br)c4)c4c(N)ncnc4n3)nn2)C[C@H]1OCC | 7.2 nM | 40.7 nM | 3 µmol/kg | – | – | 25 µmol/kg
8 | Nc1ncnc2nc(-c3ccc(N4CCC(CCOC5CCOCC5)CC4)nn3)cc(-c3cccc(Br)c3)c12 | 22.8 nM | 89.5 nM | 30 µmol/kg | – | – | 9 µmol/kg
9 | CCOC1CCN(c2ccc(-c3cc(-c4cccc(Br)c4)c4c(N)ncnc4n3)nn2)CC1 | 10.4 nM | 51.7 nM | 7 µmol/kg | – | – | 20 µmol/kg

Second part, led by results:

Row | IC50 (Adenosine kinase [1]) | IC50 (Adenosine kinase [2]) | Structure (SMILES) | ED50 (Rattus norvegicus) | inhibition in vivo at 30 µmol/kg [3] | inhibition in vivo at 100 µmol/kg [4] | ED50 [5]
10 | 8.1 nM | 50.2 nM | Nc1ncnc2nc(-c3ccc(N4CCC(O)(C5CCOC5=O)CC4)nc3)cc(-c3cccc(Br)c3)c12 (stereo unspecified) | 4 µmol/kg | 97% | 87% | –
11 | 7.5 nM | 19.5 nM | Nc1ncnc2nc(-c3ccc(N4CC5CC4CO5)nc3)cc(-c3cccc(Br)c3)c12 (stereo unspecified) | 2 µmol/kg | – | – | 8 µmol/kg
12 | 7.5 nM | 496 nM | N#C[C@H]1CN(c2ccc(-c3cc(-c4cccc(Br)c4)c4c(N)ncnc4n3)cn2)C[C@H]1O | 4 µmol/kg | 91% | – | –
13 | 8.3 nM | 378 nM | Nc1ncnc2nc(-c3ccc(N4CCC5(CC4)COCO5)nc3)cc(-c3cccc(Br)c3)c12 | 2 µmol/kg | – | – | 6 µmol/kg
14 | 6.5 nM | 130 nM | Nc1ncnc2nc(-c3ccc(N4C[C@@H](O)[C@@H](O)C4)nc3)cc(-c3cccc(Br)c3)c12 | 2 µmol/kg | 73% | – | –
15 | 10 nM | – | Nc1ncnc2nc(-c3ccc(N4CCC(=NOC5CCOCC5)CC4)nc3)cc(-c3cccc(Br)c3)c12 | 2 µmol/kg | – | – | 10 µmol/kg

— ChEMBL document CHEMBL1136829, “Adenosine kinase inhibitors: polar 7-substitutent of pyridopyrimidine derivatives improving their locomotor selectivity” (Bioorg Med Chem Lett, 2003)
